Type in all cases: cell-based
One data set relates to rat c-jun mRNA. In words: Rat c-jun mRNA expression in rat A10 cells. As for the experimental part:
Tables 13 and 14 show the sequences of oligonucleotides designed to modulate rat c-jun and c-fos mRNA expression, respectively. For the nucleotide sequence of the rat c-jun gene, see Genbank accession No. X17163/RSJUNAP1 and Saaki et al., Cancer Res., 1989, 49:5633. The nucleotide sequence of the rat c-fos gene is described in Genbank accession No. X06769/RNCFOSR and Curran et al., Oncogene, 1987, 2:79. Oligonucleotide activities were evaluated as described infra in Example 2 et seq. with the exception that rat A10 cells (available from, inter alia, the American Type Culture Collection, Rockville, Md., as ATCC No. CRL-1476) were used instead of human A549 cells. Due to the high degree of homology between human and rat c-jun and c-fos nucleotide sequences, probes derived from the human genes were used to detect the rat messages.
Another preferred oligonucleotide targeted to rat AP-1 subunits is ISIS 12635 (SEQ ID NO:80).

The subject of another data set is c-jun mRNA. The data set is described as follows: c-jun mRNA levels in PDGF-stimulated rat aortic smooth muscle cells. As to conditions: 200 nM for 4 hours; 2 and 6 hours after exposure to PDGF (10 ng/ml); versus untreated or ISIS 12898-treated cells. How it is done:
(§1) In order to evaluate the effect of AP-1 modulation on cell cycle progression, the following study was performed. Cultured rat aortic smooth muscle (RASM) cells are stimulated to proliferate upon contact with platelet-derived growth factor (PDGF). Primary RASM cells (passages 6-8) were synchronized by incubation for 48 hours in DMEM containing 0.1% FBS. The cells were treated for 4 hours with 200 nM ISIS 12633 (SEQ ID NO:78), a 20-mer phosphorothioate oligonucleotide complementary to a portion of the 3′ UTR of rat c-jun mRNA, or ISIS 12898 (SEQ ID NO:92), a scrambled control of ISIS 12633. Cells were then contacted with PDGF (10 ng/ml) (R&D Systems, Minneapolis, Minn.), and cell cycle progression was assessed by FACS analysis 24 hours later. At 2 and 6 hours after exposure to PDGF, c-jun mRNA levels were markedly less in ISIS 12633-treated cells as compared to untreated cells or cells treated with ISIS 12898.

In data set [1] the test system is rat aortic smooth muscle (RASM) cells. In words: Cell cycle progression of PDGF-stimulated rat aortic smooth muscle cells, FACS analysis. Conditions: 200 nM; 24 hours after PDGF. As for the experimental part:
as §1
Background: In flow cytometry, cells or beads pass a laser one at a time.

As to “TTT-TCT-TCC-ACT-GCC-CCT-CA (TTTTCTTCCACTGCCCCTCA; DNA, all phosphorothioate, methylation of C not given here) [ISIS 12633]”, the “modulation of rat c-jun (in words)” value with rat c-jun mRNA was “active modulator”. In the data set with c-jun mRNA, the “c-jun mRNA levels (in words)” value is listed as “markedly less”. Also, the “proportion of cells in the G2/M interface (in words)” value in data set [1] was “significant decrease”.
